The text below walks through data of PubChem BioAssay (NCI).

Common to all, as to experiment: inhibition of tumour cell growth, NCI panel, 48 h
Assay [1] relates to SF-268 CNS.
Assay [2] deals with SK-MEL-28 melanoma.
Assay [3] concerns HCC-2998 colon.
The subject of assay [4] is HT29 colon.
The subject of assay [5] is HCT-15 colon.
For assay [6], the system named is SK-MEL-2 melanoma.
Assay [7] deals with ACHN renal.
For assay [8], the system named is HS 578T breast.
Assay [9] deals with DU-145 prostate.
The test system of assay [10] is OVCAR-8 ovarian.
For assay [11], the system named is M14 melanoma.
Assay [12] relates to NCI-H522 lung.
The test system of assay [13] is NCI/ADR-RES ovarian.
For assay [14], the system named is NCI-H226 lung.
In assay [15] the test system is TK-10 renal.
In assay [16] the test system is SNB-75 CNS.

Molecules are shown by their SMILES. “And” between values parts separate entries of the source, which are not always exact repeats. Equal entries are not always repeated.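 Method: 48-hour compound exposure of cells in 96-well plates, five concentrations, linear interpolation of endpoints. The concentration for 50% growth inhibition is given as GI50. TGI marks complete inhibition of growth.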

Turning to `CC(=O)N1N=C(c2c(O)ccc3ccccc23)CC1c1ccc(Cl)cc1` (configuration not stated), the TGI in [1] was over 100 µM; in assay [2], 74 µM; in assay [3] it was 34 µM; in assay [4], 69.5 µM; in assay [5], over 100 µM; in assay [6], 38.2 µM. Besides, the TGI in assay [7] was over 100 µM; in [8], 45.1 µM; in assay [9] it was over 100 µM; in assay [10], over 100 µM; in assay [11] it was 33.5 µM; in assay [12], over 100 µM. Further, the TGI in assay [13] is 43.9 µM; in assay [14], over 100 µM; in assay [15], over 100 µM; in assay [16], over 100 µM.
Take `O=C(OC(/C=C/c1ccccc1)P1(=O)N(Cc2ccccc2)[C@@H]2CCCC[C@H]2N1Cc1ccccc1)c1ccccc1` (some centres not stated): the TGI is over 100 µM in [1]; over 100 µM in [2]; over 100 µM in assay [3]; over 100 µM in assay [4]; over 100 µM in assay [5]; 5.67 µM in assay [6]. Also, the TGI in assay [7] was over 100 µM; in [8], over 100 µM; in [9], over 100 µM; in assay [10] it was over 29.8 µM; in [11], over 100 µM; in assay [12], over 30.6 µM. The TGI is over 100 µM in [13], over 100 µM in [14], over 100 µM in assay [15] and over 28.1 µM in [16].
For the compound `CCCCCCCCCC1CC(=O)NCC(=O)NC(C(C)C)C(=O)NC(CC(C)C)C(=O)NC(C)C(=O)NC(C(C)C)C(=O)O1` (configuration not stated), the TGI in [1] was 16.1 µM; in [2], 36.6 µM; in assay [3], over 96.2 µM; in assay [4], 21.5 µM; in [5], over 100 µM; in assay [6], over 65.8 µM. For the same compound, the TGI is over 100 µM in assay [7]; 53 µM in [8]; over 74.9 µM in [9]; 18.2 µM in assay [10]; over 100 µM in assay [11]; 35.2 µM in assay [12]. Besides, the TGI in assay [13] was over 100 µM; in assay [14] it was over 69.1 µM; in assay [15], 68.9 µM; in assay [16] it was 18.2 µM.
For `COc1cccc(C[C@H]2COC(=O)[C@]2(O)Cc2cccc(OC)c2)c1`, the TGI in assay [1] was 39.4 µM; in [2] it was over 100 µM; in assay [3], over 100 µM; in [4], over 100 µM; in assay [5] it was over 100 µM; in assay [6] it was over 100 µM. In addition, the TGI in assay [7], in assay [8], in [9], in assay [10], in [11] and in assay [12] was over 100 µM throughout. Further, the TGI in [13], in assay [14], in assay [15] and in [16] was over 100 µM each time.
Consider `C/C1=C\CC/C(C)=C/C=C(/C(C)C)CC/C(C(=O)O)=C/CC1`, for which the TGI was over 100 µM in [1]; over 100 µM in assay [2]; over 100 µM in [3]; over 100 µM in [4]; over 100 µM in assay [5]; 62.2 µM in [6]. The TGI in assay [7], in [8], in [9], in assay [10], in assay [11] and in [12] was over 100 µM throughout. The TGI in assay [13], in assay [14], in [15] and in assay [16] was over 100 µM throughout.
As for `Cc1c(F)c(N)c2c(=O)cc(-c3ccc(NC(=O)[C@@H](N)CCCCN)c(F)c3)oc2c1F`, the TGI in [1] is 34.7 µM and 39.6 µM; in assay [2] it was 35.1 µM and 29 µM; in [3] it was 18.7 µM and 19.7 µM; in assay [4] it was 31 µM and 26.4 µM; in assay [5] it was 30.4 µM and 30.3 µM; in assay [6], 34.6 µM and 47.1 µM. The TGI is 31.1 µM and 25.6 µM in assay [7]; 53.4 µM and 45.8 µM in assay [8]; 41.3 µM and 27.4 µM in assay [9]; 33 µM and 24.6 µM in assay [10]; 46 µM and 39.4 µM in [11]; 45.5 µM and 35.3 µM in [12]. Also, the TGI is 51.9 µM and 78.7 µM in [13]; 15 µM in assay [14]; 21.4 µM and 26.4 µM in assay [15]; 13.6 µM in assay [16]. Moreover, the GI50 is 0.253 µM and 0.769 µM in [3]; 23.5 µM and 11.5 µM in assay [8]; 19.7 µM and 4.68 µM in assay [12]; 0.0446 µM in [14].
In the case of `COC(=O)C1(C)CCCC2(C)C3CCC4CC3(C=C4CO)CCC12` (configuration not stated), the TGI is over 100 µM in assay [1]; over 100 µM in assay [2]; over 100 µM in assay [3]; 30.9 µM in assay [4]; 34.9 µM in [5]; over 100 µM in [6]. Moreover, the TGI in assay [7], in assay [8], in assay [9], in [10], in assay [11] and in assay [12] was over 100 µM in each case. In addition, the TGI in assay [13] was 75.5 µM; in assay [14] it was over 100 µM; in assay [15] it was over 100 µM; in assay [16] it was over 100 µM.
Turning to `O=C(NCC(C(=O)OCc1ccccc1)C(=O)OCc1ccccc1)OCc1ccccc1`, the TGI in [1], in assay [2], in assay [3], in [4], in [5] and in assay [6] was over 100 µM in each case. In addition, the TGI in [7], in [8], in [9], in assay [10], in assay [11] and in [12] was over 100 µM in each case. Moreover, the TGI in [13], in assay [14], in assay [15] and in assay [16] was over 100 µM each time.
